# pKi: −log10 of the molar value.
# Assays:
# α1a-AR = biological target: T1, α1a-AR (Homo sapiens, UniProt P35348); test: α1-Adrenergic receptor radio-ligand (125I-HEAT) binding assay, α1a subtype; conditions: COS-7 cell membranes, 125I-HEAT
# T1 construct: expressed in transfected cells; host or cells: COS-7
# T1 sequence (P35348 1-466): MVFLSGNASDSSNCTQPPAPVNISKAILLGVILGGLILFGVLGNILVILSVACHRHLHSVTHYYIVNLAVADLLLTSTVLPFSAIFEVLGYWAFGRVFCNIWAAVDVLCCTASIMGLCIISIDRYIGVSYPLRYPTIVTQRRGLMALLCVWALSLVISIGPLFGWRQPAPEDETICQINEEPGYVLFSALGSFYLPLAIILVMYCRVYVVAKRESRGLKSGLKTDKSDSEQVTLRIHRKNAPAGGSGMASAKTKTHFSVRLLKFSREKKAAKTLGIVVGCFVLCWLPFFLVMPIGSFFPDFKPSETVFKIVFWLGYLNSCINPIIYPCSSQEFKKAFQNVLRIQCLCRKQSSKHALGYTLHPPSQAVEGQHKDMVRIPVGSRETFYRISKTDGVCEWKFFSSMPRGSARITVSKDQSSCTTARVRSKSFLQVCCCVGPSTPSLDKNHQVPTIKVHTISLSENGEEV
# Protocol: (§1) α1-Adrenergic Receptor Binding Assay: Preparation of COS Cell Membranes
# (§2) Membranes were prepared from COS-7 cells that had been transfected with one of the three α1-AR subtypes by the following method. COS cells from ten 100 mm tissue culture plates were scraped into 5 mL TE (50 mM Tris-HCl, 5 mM EDTA, pH 7.4). The cell suspension was disrupted with a Brinkman Polytron, setting 8, for 10 sec. The disrupted cells were centrifuged at 1000×g for 10 min at 4° C. Supernatants were centrifuged at 34,500×g for 20 min at 4° C. The membrane pellets were suspended in 2 mL TNE (50 mM Tris-HCl, 5 mM EDTA, 150 mM NaCl, pH7.4). An aliquot of the membrane suspension was stored at −70° C. until use. The protein concentration was determined using the BioRad DC protein assay kit following membrane solubilization with Triton X-100.
# (§3) Radio-Ligand Binding Assay
# (§4) Triplicate determinations of radio-ligand binding in the presence of increasing: concentrations of testing compound were made. The reagents were added to 96-well polypropylene plate wells using the Biomek 1000 robot (Beckman Instruments). Each assay well contained 140 μl TNE, 25 μL ^125I-HEAT (specific activity 2200 Ci/mmol, Dupont-NEN, 50 pM final), 10 μL testing compound dissolved in DMSO (1 pM to 10 μM in half-log increments, final), and 25 μL appropriate α1-AR membrane subtype suspension in TNE (0.5 ng/μL for the α1a and α1b subtypes and 13 ng/μL for the α1d subtype). The plate was incubated at rt for 1 hr. The contents of the wells were filtered through a GF/C membrane Unifilter plate (Packard Instruments) using the Packard Filtermate cell harvester. The filter plates were dried in a vacuum oven for 30 min at 40° C. 25 μL Microscint 20 liquid scintillation fluid (Packard Instuments) was added to each well. The radioactive content was analyzed in the TopCount microplate scintillation counter (Packard Instruments).
# α1d-AR = biological target: T2, α1d-AR (Homo sapiens, UniProt P25100); test: α1-Adrenergic receptor radio-ligand (125I-HEAT) binding assay, α1d subtype; conditions: COS-7 cell membranes, 125I-HEAT; read-out: Receptor Binding, Ki α1d-AR
# T2 construct: expressed in transfected cells; host or cells: COS-7
# T2 sequence (P25100 1-572): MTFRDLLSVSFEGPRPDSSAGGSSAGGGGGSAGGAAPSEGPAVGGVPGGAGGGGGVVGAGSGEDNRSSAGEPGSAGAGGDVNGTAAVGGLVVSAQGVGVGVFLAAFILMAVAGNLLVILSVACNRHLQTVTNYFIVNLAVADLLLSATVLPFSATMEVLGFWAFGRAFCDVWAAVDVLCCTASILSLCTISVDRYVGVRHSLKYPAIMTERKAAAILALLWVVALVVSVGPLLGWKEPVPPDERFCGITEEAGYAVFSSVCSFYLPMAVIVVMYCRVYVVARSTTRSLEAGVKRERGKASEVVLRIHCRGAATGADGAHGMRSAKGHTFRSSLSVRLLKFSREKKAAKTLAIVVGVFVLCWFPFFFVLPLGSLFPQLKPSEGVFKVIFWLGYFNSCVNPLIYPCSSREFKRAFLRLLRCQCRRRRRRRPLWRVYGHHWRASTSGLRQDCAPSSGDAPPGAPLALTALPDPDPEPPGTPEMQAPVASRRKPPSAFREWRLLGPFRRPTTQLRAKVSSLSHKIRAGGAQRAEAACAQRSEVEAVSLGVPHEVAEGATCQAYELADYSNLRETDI
# Protocol: as §1, §2, §3
# as §4, with “Each assay well contained 140 μl TNE, 25 μL ^125I-HEAT (specific activity 2200 Ci/mmol, Dupont-NEN, 50 pM final), 10 μL testing compound dissolved in DMSO (1 pM to 10 μM in half-log increments, final), and 25 μL appropriate α1-AR membrane subtype suspension in TNE (0.5 ng/μL for the α1a and α1b subtypes and 13 ng/μL for the α1d subtype).” left out
# α1b-AR = biological target: T3, α1b-AR (Homo sapiens, UniProt P35368); test: α1-Adrenergic receptor radio-ligand (125I-HEAT) binding assay, α1b subtype; conditions: Receptor Binding, Ki α1b-AR, COS-7 cell membranes, 125I-HEAT
# T3 sequence (P35368 1-520): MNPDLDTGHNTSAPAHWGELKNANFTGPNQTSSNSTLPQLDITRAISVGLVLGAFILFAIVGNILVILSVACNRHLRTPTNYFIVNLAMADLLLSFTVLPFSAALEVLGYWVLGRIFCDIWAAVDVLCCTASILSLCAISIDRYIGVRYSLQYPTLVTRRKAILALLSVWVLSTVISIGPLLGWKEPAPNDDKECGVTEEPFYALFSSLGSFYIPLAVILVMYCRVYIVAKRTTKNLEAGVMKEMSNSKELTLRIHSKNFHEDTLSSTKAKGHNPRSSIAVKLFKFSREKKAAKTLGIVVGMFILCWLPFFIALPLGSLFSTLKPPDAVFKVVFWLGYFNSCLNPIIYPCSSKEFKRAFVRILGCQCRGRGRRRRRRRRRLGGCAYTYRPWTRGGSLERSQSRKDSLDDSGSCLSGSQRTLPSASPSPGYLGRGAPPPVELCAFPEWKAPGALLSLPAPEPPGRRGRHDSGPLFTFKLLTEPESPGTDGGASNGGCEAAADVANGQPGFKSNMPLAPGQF
SMILES,pKi (α1a-AR),pKi (α1d-AR),pKi (α1b-AR)
"CC(C)Oc1ccccc1N1CCN([C@H]2CC[C@@H](NS(=O)(=O)c3cnc(Cl)c(Br)c3)CC2)CC1 [Cpd 61, 5-Bromo-6-chloro-pyridine-3-sulfonic acid N-cis-{4-[4-(2-isopropoxy-phenyl)-piperazin-1-yl]-cyclohexyl}-amide]",7.84,9.85,6.90
"COc1ccc(C)cc1S(=O)(=O)N[C@H]1CC[C@H](N2CCN(c3ccccc3OC(C)C)CC2)CC1 [Cpd 32, N-trans-{4-[4-(2-Isopropoxy-phenyl)-piperazin-1-yl]-cyclohexyl}-2-methoxy-5-methyl-benzenesulfonamide]",9.05,7.51,6.66
"Cc1c(Cl)cccc1S(=O)(=O)N[C@H]1CC[C@H](N2CCN(c3ccccc3OC(C)C)CC2)CC1 [Cpd 39, 3-Chloro-N-trans-{4-[4-(2-isopropoxy-phenyl)-piperazin-1-yl]-cyclohexyl}-2-methyl-benzenesulfonamide]",8.96,8.27,6.26
"Cc1c(Cl)cccc1S(=O)(=O)N[C@H]1CC[C@@H](N2CCN(c3ccccc3OC(C)C)CC2)CC1 [Cpd 11, 3-Chloro-N-cis-{4-[4-(2-isopropoxy-phenyl)-piperazin-1-yl]-cyclohexyl}-2-methyl-benzenesulfonamide]",7.74,8.96,6.89
"COc1ccncc1S(=O)(=O)N[C@H]1CC[C@@H](N2CCN(c3ccccc3OC(C)C)CC2)CC1 [Cpd 60, 4-Methoxy-pyridine-3-sulfonic acid N-cis-{4-[4-(2-isopropoxy-phenyl)-piperazin-1-yl]-cyclohexyl}-amide]",8.31,8.03,6.77
"CC(C)Oc1ccccc1N1CCN([C@H]2CC[C@@H](NS(=O)(=O)c3ccc(OC(F)(F)F)cc3)CC2)CC1 [Cpd 17, N-cis-{4-[4-(2-Isopropoxy-phenyl)-piperazin-1-yl]-cyclohexyl}-4-trifluoromethoxy-benzenesulfonamide]",7.76,8.68,6.76
"CC(C)Oc1ccccc1N1CCN([C@H]2CC[C@@H](NS(=O)(=O)c3ccc(F)c(Cl)c3)CC2)CC1 [Cpd 14, 3-Chloro-4-fluoro-N-cis-{4-[4-(2-isopropoxy-phenyl)-piperazin-1-yl]-cyclohexyl}-benzenesulfonamide]",7.94,8.37,6.61

# The next lines start with the values.
pKi (α1a-AR),pKi (α1d-AR),pKi (α1b-AR),SMILES
8.05,7.91,6.84,"COc1ccc(S(=O)(=O)N[C@H]2CC[C@H](N3CCN(c4ccc(F)cc4OC(C)C)CC3)CC2)cc1OC [Cpd 72, N-trans-{4-[4-(4-Fluoro-2-isopropoxy-phenyl)-piperazin-1-yl]-cyclohexyl}-3,4-dimethoxy-benzenesulfonamide]"
6.22,6.87,7.09,"COc1ccc(Cl)cc1S(=O)(=O)N[C@H]1CC[C@@H](N2CCN(c3ccc(F)cc3OC(C)C)CC2)CC1 [Cpd 73, 5-Chloro-N-cis-{4-[4-(4-fluoro-2-isopropoxy-phenyl)-piperazin-1-yl]-cyclohexyl}-2-methoxy-benzenesulfonamide]"
7.47,7.29,7.05,"COc1ccc(Cl)cc1S(=O)(=O)N[C@H]1CC[C@H](N2CCN(c3ccc(F)cc3OCC(F)(F)F)CC2)CC1 [Cpd 81, 5-Chloro-N-trans-(4-{4-[4-fluoro-2-(2,2,2-trifluoro-ethoxy)-phenyl]-piperazin-1-yl}-cyclohexyl)-2-methoxy-benzenesulfonamide]"
8.42,–,6.60,"COc1ccc(Cl)cc1S(=O)(=O)N[C@H]1CC[C@H](N2CCN(c3ccccc3OC(C)C)CC2)CC1 [Cpd 31, 5-Chloro-N-trans-{4-[4-(2-isopropoxy-phenyl)-piperazin-1-yl]-cyclohexyl}-2-methoxy-benzenesulfonamide]"
8.77,9.24,7.12,"COc1ccc(S(=O)(=O)N[C@H]2CC[C@@H](N3CCN(c4cc(F)ccc4OCC(F)(F)F)CC3)CC2)cc1OC [Cpd 83, N-cis-(4-{4-[5-Fluoro-2-(2,2,2-trifluoro-ethoxy)-phenyl]-piperazin-1-yl}-cyclohexyl)-3,4-dimethoxy-benzenesulfonamide]"
7.37,7.54,6.69,"O=S(=O)(N[C@H]1CC[C@@H](N2CCN(c3ccc(F)cc3OCC(F)(F)F)CC2)CC1)c1cc(Cl)ccc1F [Cpd 77, 5-Chloro-2-fluoro-N-cis-(4-{4-[4-fluoro-2-(2,2,2-trifluoro-ethoxy)-phenyl]-piperazin-1-yl}-cyclohexyl)-benzenesulfonamide]"
7.83,8.23,6.15,"COc1ccc(S(=O)(=O)N[C@H]2CC[C@@H](N3CCN(c4ccc(F)cc4OC(C)C)CC3)CC2)cc1OC [Cpd 71, N-cis-{4-[4-(4-Fluoro-2-isopropoxy-phenyl)-piperazin-1-yl]-cyclohexyl}-3,4-dimethoxy-benzenesulfonamide]"
8.27,7.85,6.97,"CC(C)Oc1cc(F)ccc1N1CCN([C@H]2CC[C@H](NS(=O)(=O)c3cc(Cl)ccc3F)CC2)CC1 [Cpd 79, 5-Chloro-2-fluoro-N-trans-{4-[4-(4-fluoro-2-isopropoxy-phenyl)-piperazin-1-yl]-cyclohexyl}-benzenesulfonamide]"
8.60,–,7.32,"COc1ccc(Cl)cc1S(=O)(=O)N[C@H]1CC[C@@H](N2CCN(c3ccccc3OC(C)C)CC2)CC1 [Cpd 3, 5-Chloro-N-cis-{4-[4-(2-isopropoxy-phenyl)-piperazin-1-yl]-cyclohexyl}-2-methoxy-benzenesulfonamide]"
